Measurements: ChEMBL document CHEMBL4483862, “Open-source discovery of chemical leads for next-generation chemoprotective antimalarials” (2018)
pIC50: −log10 of the molar value.

Test system: Plasmodium berghei
Experiment: Luciferase/luciferin-expressing antifolate-resistant parasites were used to infect a culture of HepG2 cells that were pre-incubated with compounds. Infected hepatocytes emit light due to the luciferase reaction. Assay results are presented as the percent inhibition of light emission compared to control. […]
Type: functional
Conditions: sporozoite; for IC90: read-out: LUCIFERASE INFECTION ASSAY - IC90
[1] = read-out: LUCIFERASE INFECTION ASSAY - IC50

Row | Compound | IC90 [µM] | pIC50 [1] | other results
1 | Oc1cc(-c2ccccc2)nc2ccccc12 | 0.307 |  | pIC50 (HEPG2TOX_HILL_SLOPE 0.704, HEPG2TOX_R_SQUARED 0.901, PBLUC_HILL_SLOPE 3.71, PBLUC_R_SQUARED 0.852, read-out: LUCIFERASE INFECTION ASSAY - IC50): 6.77
2 | Cn1c(Cl)cnc1CN1CCN(CC(=O)Nc2ccccc2Cl)CC1 | > 10 | < 5.00 | 
3 | O=C1/C(=C/c2ccc(C(F)(F)F)cc2)CCC/C1=C\c1ccc(C(F)(F)F)cc1 | 7.87 |  | pIC50 (HEPG2TOX_HILL_SLOPE 11.7, HEPG2TOX_R_SQUARED 0.984, PBLUC_HILL_SLOPE 3.19, PBLUC_R_SQUARED 0.77, read-out: LUCIFERASE INFECTION ASSAY - IC50): 5.40
4 | CCOc1ccc(C(C)=O)cc1COC(=O)c1cc(-c2cccc3ccccc23)nc2ccccc12 | > 10 |  | pIC50 (FFLUC_HILL_SLOPE 1.76, FFLUC_R_SQUARED 0.222, read-out: LUCIFERASE INFECTION ASSAY - IC50): < 5.00
5 | O=C(CN1CCN(Cc2csc(Nc3cccc(C(F)(F)F)c3)n2)CC1)N1CCCC1 | > 10 | < 5.00 | 
6 | CC(C)N1/C(=C\c2ccccc2O)C(=O)c2ccccc2S1(=O)=O | > 9.61 |  | pIC50 (HEPG2TOX_HILL_SLOPE 2.04, HEPG2TOX_R_SQUARED 0.975, PBLUC_HILL_SLOPE 1.99, PBLUC_R_SQUARED 0.616, read-out: LUCIFERASE INFECTION ASSAY - IC50): 5.49
7 | CS(=O)(=O)c1cccc(S(=O)(=O)Oc2ccc(C34CC5CC(CC(C5)C3)C4)cc2)c1 | > 10 |  | pIC50 (HEPG2TOX_HILL_SLOPE 12.1, HEPG2TOX_R_SQUARED 0.709, PBLUC_HILL_SLOPE 2.69, PBLUC_R_SQUARED 0.465, read-out: LUCIFERASE INFECTION ASSAY - IC50): 5.35
8 | CN(C)C(=O)c1ccc(-c2cnc3cnc(-c4ccccc4Oc4ccccc4)cn23)cc1 | 3.65 |  | pIC50 (PBLUC_HILL_SLOPE 8.03, PBLUC_R_SQUARED 0.291, read-out: LUCIFERASE INFECTION ASSAY - IC50): 5.56
9 | CN1CCN(c2ccc(-c3cn4c(-c5cccc(Cl)c5)cnc4cn3)cn2)CC1 | > 8.15 |  | pIC50 (PBLUC_HILL_SLOPE 1.98, PBLUC_R_SQUARED 0.725, read-out: LUCIFERASE INFECTION ASSAY - IC50): 5.27
10 | CCC(CC)c1nnc(NC(=O)/C=C/c2cn(-c3ccccc3)nc2-c2ccc(F)cc2)s1 | > 10 | < 5.00 | 
11 | CC(C)c1ccc(NC(=O)C2=CN3CCN(Cc4ccccc4)C(=O)N=C3O2)cc1 | > 10 |  | pIC50 (FFLUC_HILL_SLOPE 11.9, FFLUC_R_SQUARED 0.0164, read-out: LUCIFERASE INFECTION ASSAY - IC50): < 5.00
12 | CCn1c(-c2ccccc2)c(C(=O)COc2ccc(Cl)c(C)c2)c2ccccc21 | > 10 |  | pIC50 (HEPG2TOX_HILL_SLOPE 7.06, HEPG2TOX_R_SQUARED 0.488, PBLUC_HILL_SLOPE 0.342, PBLUC_R_SQUARED 0.631, read-out: LUCIFERASE INFECTION ASSAY - IC50): 6.45
13 | c1ccc(CN2CCC(Nc3ncnc4sccc34)CC2)cc1 | > 10 | 5.05 | 
14 | Cn1ccnc1C(=O)NNc1ncc(C(F)(F)F)cc1Cl | 1.21 |  | pIC50 (HEPG2TOX_HILL_SLOPE 1.64, HEPG2TOX_R_SQUARED 0.948, PBLUC_HILL_SLOPE 15.2, PBLUC_R_SQUARED 0.698, read-out: LUCIFERASE INFECTION ASSAY - IC50): 5.98
15 | COc1cc(-c2cnc3cnc(-c4ccccc4Cl)cn23)ccc1O | > 9.38 |  | pIC50 (PBLUC_HILL_SLOPE 17.8, PBLUC_R_SQUARED 0.0398, read-out: LUCIFERASE INFECTION ASSAY - IC50): 5.08
16 | O=C(Cn1cnc2sc(-c3ccccc3)cc2c1=O)Nc1nc(CN2CCCCC2)cs1 | > 10 | < 5.00 | 
17 | O=C(NCCc1ccccn1)c1ccc(Cl)c(S(=O)(=O)N(Cc2ccccc2)c2cccc(C(F)(F)F)c2)c1 | 3.59 |  | pIC50 (PBLUC_HILL_SLOPE 3, PBLUC_R_SQUARED 0.619, read-out: LUCIFERASE INFECTION ASSAY - IC50): 5.76
18 | O=C(c1ccc(-c2ccc3c(c2)OCCO3)s1)N1CCc2ccccc21 | > 10 | < 5.00 | 
19 | CC(C)(C)c1ccc(C(=O)NNC(=S)Nc2ccccc2)cc1 | > 10.1 |  | pIC50 (FFLUC_HILL_SLOPE 0.417, FFLUC_R_SQUARED 0.371, PBLUC_HILL_SLOPE 1.47, PBLUC_R_SQUARED 0.465, read-out: LUCIFERASE INFECTION ASSAY - IC50): 5.52
20 | OCc1ccc(-c2cnc3cnc(-c4ccccc4CO)cn23)cc1 | > 9.96 | < 5.00 | 
21 | Cc1cc(OCC(=O)/N=c2/sccn2C)c(C(C)C)cc1Cl | > 10 | < 5.00 | 
22 | CN(Cc1ccc(Cl)s1)C(=O)Cn1ncc(Br)c(Br)c1=O | 8.7 |  | pIC50 (HEPG2TOX_HILL_SLOPE 8.71, HEPG2TOX_R_SQUARED 0.0596, PBLUC_HILL_SLOPE 2.5, PBLUC_R_SQUARED 0.642, read-out: LUCIFERASE INFECTION ASSAY - IC50): 5.44

Row | Compound | IC90 [µM] | pIC50 [1] | other results
23 | O=C(Nc1cc(C(F)(F)F)cc(C(F)(F)F)c1)c1cnn(-c2ccccc2)c1C(F)(F)F | > 7.06 | < 5.15 | 
24 | Cc1cc2nnc(SC(C)C(=O)Nc3ccc([N+](=O)[O-])cc3C(F)(F)F)n2c2ccccc12 (stereo unspecified) | > 10 | < 5.00 | 
25 | CCOc1ccccc1NC(=O)C(NCc1ccc(OC(F)F)cc1)c1ccccc1 (stereo unspecified) | 4.47 |  | pIC50 (HEPG2TOX_HILL_SLOPE 2.27, HEPG2TOX_R_SQUARED 0.924, PBLUC_HILL_SLOPE 9.94, PBLUC_R_SQUARED 0.658, read-out: LUCIFERASE INFECTION ASSAY - IC50): 5.44
26 | CCn1c(-c2ccccc2)c(C(=O)COC(=O)c2c(NC(C)=O)sc3c2CCCC3)c2ccccc21 | > 10 | < 5.00 | 
27 | c1ccc(-c2cn3ccnc3c(NCc3ccncc3)n2)cc1 | 4.49 |  | pIC50 (HEPG2TOX_HILL_SLOPE 2.19, HEPG2TOX_R_SQUARED 0.99, PBLUC_HILL_SLOPE 12.4, PBLUC_R_SQUARED 0.482, read-out: LUCIFERASE INFECTION ASSAY - IC50): 5.42
28 | COc1ccc(-c2cnc3cnc(/C=C/c4ccccc4)cn23)cc1 | 2.11 |  | pIC50 (PBLUC_HILL_SLOPE 3.95, PBLUC_R_SQUARED 0.779, read-out: LUCIFERASE INFECTION ASSAY - IC50): 5.92
29 | CC(=O)N1CCc2cc(NC(=O)c3cc(C)n(C4CCCCC4)c3C)ccc21 | 0.349 |  | pIC50 (PBLUC_HILL_SLOPE 2.13, PBLUC_R_SQUARED 0.772, read-out: LUCIFERASE INFECTION ASSAY - IC50): 6.90
30 | CC(=O)c1c(C)[nH]c(C(=O)Nc2ccc(C)c(S(=O)(=O)Nc3ccc(C)cc3C)c2)c1C | > 10 |  | pIC50 (HEPG2TOX_HILL_SLOPE 7.64, HEPG2TOX_R_SQUARED 0.623, PBLUC_HILL_SLOPE 8.53, PBLUC_R_SQUARED 0.404, read-out: LUCIFERASE INFECTION ASSAY - IC50): 5.03
31 | O=C(Nc1ccc(Cl)cc1)N1CCCN(Cc2ccc(Br)cc2F)CC1 | > 7.49 |  | pIC50 (PBLUC_HILL_SLOPE 1.86, PBLUC_R_SQUARED 0.575, read-out: LUCIFERASE INFECTION ASSAY - IC50): 5.53
32 | O=C(CNC(=O)c1ccc(N2CCCC2=O)cc1)NCCCn1cccn1 | > 10 | < 5.00 | 
33 | O=C(NNC(=O)c1csnn1)c1ccc(Cl)cc1 | 0.897 |  | pIC50 (PBLUC_HILL_SLOPE 1.87, PBLUC_R_SQUARED 0.856, read-out: LUCIFERASE INFECTION ASSAY - IC50): 6.56
34 | CN(CC(=O)Nc1ccc(Oc2ccccc2)cc1)c1c(N)n(Cc2ccccc2)c(=O)[nH]c1=O | > 10 |  | pIC50 (PBLUC_HILL_SLOPE 10.4, PBLUC_R_SQUARED 0.215, read-out: LUCIFERASE INFECTION ASSAY - IC50): 5.01
35 | CC(=O)NCCNC(=O)c1ccc(OCC2CCCO2)cc1 (stereo unspecified) | > 2 | < 5.70 | 
36 | CC(=O)N(c1nc(/C=C/C(=O)c2ccc(F)c(Br)c2)cs1)c1ccc(F)cc1F | > 10 | < 5.00 | 
37 | COc1ccc(Br)cc1-c1nc(CN2C(=O)NC(C)(c3ccccc3)C2=O)cs1 (stereo unspecified) | 5.61 |  | pIC50 (HEPG2TOX_HILL_SLOPE 2.19, HEPG2TOX_R_SQUARED 0.876, PBLUC_HILL_SLOPE 2.71, PBLUC_R_SQUARED 0.259, read-out: LUCIFERASE INFECTION ASSAY - IC50): 5.60
38 | Oc1ccc(-c2cnc3cnc(-c4ccc(Cl)cc4)cn23)cc1 | 4.61 |  | pIC50 (HEPG2TOX_HILL_SLOPE 2.24, HEPG2TOX_R_SQUARED 0.991, PBLUC_HILL_SLOPE 6.34, PBLUC_R_SQUARED 0.684, read-out: LUCIFERASE INFECTION ASSAY - IC50): 5.49
39 | COc1ccccc1NS(=O)(=O)c1ccc2c(c1)N=Cc1c(C)nn(-c3ccc(Cl)cc3)c1O2 | > 10 |  | pIC50 (HEPG2TOX_HILL_SLOPE 6.8, HEPG2TOX_R_SQUARED 0.772, PBLUC_HILL_SLOPE 15.5, PBLUC_R_SQUARED 0.126, read-out: LUCIFERASE INFECTION ASSAY - IC50): 5.03
40 | CCOC(=O)c1c(C)oc(NC(=O)CSc2nnc(-c3ccccc3)n2-c2ccc(C)c(C)c2)c1C#N | > 10 | < 5.00 | 
41 | O=C(c1ccco1)N1CCc2nc(NCc3cccc(Oc4ccccc4)c3)ncc2C1 | 2.99 |  | pIC50 (HEPG2TOX_HILL_SLOPE 1.64, HEPG2TOX_R_SQUARED 0.989, PBLUC_HILL_SLOPE 13.2, PBLUC_R_SQUARED 0.473, read-out: LUCIFERASE INFECTION ASSAY - IC50): 5.60
42 | N=C1NC(=Nc2ccc(Cl)c(Cl)c2)c2ccccc21 | > 10 |  | pIC50 (PBLUC_HILL_SLOPE 9.86, PBLUC_R_SQUARED 0.113, read-out: LUCIFERASE INFECTION ASSAY - IC50): 5.02
43 | Cc1ccc(-c2nc3c(c(SCCN4CCCC4)n2)COC(C)(C)C3)cc1 | > 8.6 |  | pIC50 (PBLUC_HILL_SLOPE 2.75, PBLUC_R_SQUARED 0.0927, read-out: LUCIFERASE INFECTION ASSAY - IC50): 5.15
